{"source": "patent US20170319669A1", "about": "“METHOD OF ENHANCING VIRAL-MEDIATED GENE DELIVERY” (Wayne State University, priority 2016, published 2017)", "key": {"retinal bipolar cells": {"system": "retinal bipolar cells", "experiment": "AAV-mediated transduction efficiency (mCherry expression) in retinal bipolar cells after intravitreal co-injection of rAAV2 vector with proteasome inhibitor", "assay_type": "in vivo, C57BL/6J mice", "settings": "for transduction efficiency in retinal bipolar cells: about one month after virus injection; for expression (fluorescence intensity) of mCherry in bipolar cells: intravitreal", "source_text": "FIG. 1A-B is a series of photographs and a graph depicting the effects of proteasomes on the AAV-mediated expression of transgene (mCherry) in retinal bipolar cells one month after virus injection. FIG. 1A: Representative images of virus transduced retinal bipolar cells. […] DOX: doxorubicin; Acla: Aclarubicin; MG: MG132. FIG. 1B. Statistical data for evaluating the fluorescence intensity of mCherry in bipolar cells one month after virus injection.\nFIG. 2A-B is a series of photographs and a graph depicting the effects of DOX on the AAV-mediated expression of transgene (mCherry) in retinal bipolar cells three months after virus injection. FIG. 2A. Representative images of virus transduced retinal bipolar cells three months after virus injection. Virus vectors were co-injected with DOX at different concentrations. FIG. 2B. Statistical data for evaluating the fluorescence intensity of mCherry in bipolar cells three months after virus injection."}, "retinal ganglion cells": {"system": "retinal ganglion cells", "experiment": "Density of retinal ganglion cells (DAPI staining) after virus injection with and without DOX", "assay_type": "in vivo, C57BL/6J mice", "settings": "three months after virus injection; 300 μM and 500 μM DOX", "source_text": "FIG. 4A-B is a series of photographs and a graph, depicting the effects of DOX on retinal ganglion cells. FIG. 4A. Representative images for evaluating the density of retinal ganglion cells with DAPI staining after virus transduction in bipolar cells with and without DOX at different concentrations. Animals were euthanized one and three months after virus injection. FIG. 4B. Statistical data for evaluating the density of retinal ganglion cells one and three months after virus injection with and without doxorubicin (DOX)."}}, "note": "Peptide text beside a SMILES is read from it. * marks the point of attachment. Cbz = O=C(OCc1ccccc1)*"}
{"smiles": "CC[C@@]1(O)C[C@H](O[C@H]2C[C@H](N(C)C)[C@H](O[C@H]3C[C@H](O)[C@H](O[C@H]4CCC(=O)[C@H](C)O4)[C@H](C)O3)[C@H](C)O2)c2c(cc3c(c2O)C(=O)c2c(O)cccc2C3=O)[C@H]1C(=O)OC", "note": "[aclarubicin]", "values": [{"measurement": "transduction efficiency in retinal bipolar cells", "setting": "retinal bipolar cells; aclarubicin 50 μM, 100 μM", "value": "not found to enhance the transduction efficiency"}]}
{"smiles": "COc1cccc2c1C(=O)c1c(O)c3c(c(O)c1C2=O)C[C@@](O)(C(=O)CO)C[C@@H]3O[C@H]1C[C@H](N)[C@H](O)[C@H](C)O1", "note": "[doxorubicin]", "values": [{"measurement": "transduction efficiency in retinal bipolar cells", "setting": "retinal bipolar cells; doxorubicin from 200 μM to 800 μM", "value": "concentration-dependent increase"}, {"measurement": "optimal concentration to enhance the AAV transduction efficiency", "setting": "retinal bipolar cells; intravitreal co-injection with rAAV2 vector, mice", "value": 500, "unit": "µM"}, {"measurement": "expression (fluorescence intensity) of mCherry in bipolar cells", "setting": "retinal bipolar cells; one month after virus injection, co-injection of DOX at concentrations ≧300 μM, mice", "value": "significantly increased"}, {"measurement": "expression (fluorescence intensity) of mCherry in bipolar cells", "setting": "retinal bipolar cells; three months after virus injection, co-injection of DOX at concentrations ≧200 μM, mice", "value": "significantly increased"}, {"measurement": "retinal ganglion cell density vs control", "setting": "retinal ganglion cells", "value": "statistically lower than that of control"}]}
{"smiles": "CC(C)C[C@@H](C=O)NC(=O)[C@H](CC(C)C)NC(=O)[C@H](CC(C)C)NC(=O)OCc1ccccc1", "note": "[MG132] (Cbz-Leu-Leu-Leu-aldehyde)", "values": [{"measurement": "transduction efficiency in retinal bipolar cells", "setting": "retinal bipolar cells; MG132 100 μM, 200 μM, 500 μM", "value": "not found to enhance the transduction efficiency"}]}
